In article PMC3794971, “Functional and Genetic Characterization of Neuropeptide Y-Like Receptors in Aedes aegypti” (PLoS Neglected Tropical Diseases, 2013):
Square brackets hold non-standard residues; d marks the D form. Peptide text beside a SMILES is read from it. Hyp = O=C(O)[C@@H]1C[C@@H](O)CN1; pGlu = O=C1CC[C@@H](C(=O)O)N1

How the values were obtained:
Ae. aegypti NPYLR1 = target: T1, Ae. aegypti NPYLR1 (Aedes aegypti, UniProt U5N0U1); assay: HEK293T cell-based calcium imaging assay, Ae. aegypti NPYLR1; conditions: for EC50: HEK293T cells transiently co-transfected with receptor and murine Gqα15, Fura-2 calcium imaging, eight responding cells per plate, three independent transfections, normalized to highest response
T1 sequence (U5N0U1 1-529): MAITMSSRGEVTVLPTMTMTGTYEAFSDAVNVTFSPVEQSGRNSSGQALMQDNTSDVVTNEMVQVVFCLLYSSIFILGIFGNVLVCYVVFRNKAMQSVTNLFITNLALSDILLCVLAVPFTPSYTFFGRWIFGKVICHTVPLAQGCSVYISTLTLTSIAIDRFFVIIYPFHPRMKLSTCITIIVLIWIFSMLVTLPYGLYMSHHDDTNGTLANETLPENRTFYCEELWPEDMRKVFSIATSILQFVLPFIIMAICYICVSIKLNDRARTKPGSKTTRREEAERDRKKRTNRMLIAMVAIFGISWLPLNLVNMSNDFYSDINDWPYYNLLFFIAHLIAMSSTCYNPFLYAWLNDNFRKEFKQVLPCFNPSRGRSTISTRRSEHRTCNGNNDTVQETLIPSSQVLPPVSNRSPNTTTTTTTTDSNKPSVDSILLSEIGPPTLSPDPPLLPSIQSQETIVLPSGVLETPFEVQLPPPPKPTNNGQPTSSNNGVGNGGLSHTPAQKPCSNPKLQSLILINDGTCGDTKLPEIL
Experimental: The variant alleles of NPYLR1 (alleles A–D) and NPYLR7 (alleles A–B) were tested in the cell-based assay as follows: NPYLR1A, NPYLR7A, and NPYLR7B were tested against the entire panel of peptides. NPYLR1B, NPYLR1C, and NPYLR1D were tested against Head Peptide-I and sNPF-3 only.

[1] = system: Ae. aegypti female mosquitoes; conditions: earlier report; cited from earlier work
Experimental: At least two mechanisms for host-seeking inhibition have been proposed. First, abdominal distension triggered by blood ingestion is communicated through the ventral nerve cord to inhibit host attraction for approximately 24 hours [7](Figure 1B). Second, a humoral substance discovered in hemolymph at 48 hours after a blood meal is capable of suppressing host-seeking behavior when injected into non-blood-fed females [4](Figure 1B).

D.mel-sNPFR [2] = target: T2, D.mel-sNPFR (Drosophila melanogaster, UniProt Q9VW75); conditions: earlier reports, not this paper's assay; cited from earlier work
T2 sequence (Q9VW75 1-600): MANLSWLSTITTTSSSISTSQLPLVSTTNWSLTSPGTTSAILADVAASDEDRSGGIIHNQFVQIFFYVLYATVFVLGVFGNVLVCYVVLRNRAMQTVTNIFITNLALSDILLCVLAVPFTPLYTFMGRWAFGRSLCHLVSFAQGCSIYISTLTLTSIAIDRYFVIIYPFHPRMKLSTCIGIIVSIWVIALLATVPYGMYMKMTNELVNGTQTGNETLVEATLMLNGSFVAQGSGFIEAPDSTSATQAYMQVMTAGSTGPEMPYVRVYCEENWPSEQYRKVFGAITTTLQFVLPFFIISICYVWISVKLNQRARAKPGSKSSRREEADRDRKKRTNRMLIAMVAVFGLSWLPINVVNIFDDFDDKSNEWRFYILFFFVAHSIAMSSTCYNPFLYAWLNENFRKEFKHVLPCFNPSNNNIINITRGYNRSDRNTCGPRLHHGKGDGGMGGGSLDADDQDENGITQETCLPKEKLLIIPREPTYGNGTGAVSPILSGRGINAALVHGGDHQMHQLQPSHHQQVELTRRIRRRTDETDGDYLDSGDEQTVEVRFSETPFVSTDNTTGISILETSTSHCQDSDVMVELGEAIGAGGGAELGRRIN
Description: (§1) Ae. aegypti NPYLR1 is homologous to the sNPF receptors (sNPFR) of D. melanogaster, [24] and An. gambiae. […] We have no explanation for these discrepancies, but note that since D ...

A.gam-sNPFR = target: T3, A.gam-sNPFR (Anopheles gambiae, UniProt A0SIF2); conditions: earlier reports, not this paper's assay; cited from earlier work
T3 sequence (A0SIF2 1-575): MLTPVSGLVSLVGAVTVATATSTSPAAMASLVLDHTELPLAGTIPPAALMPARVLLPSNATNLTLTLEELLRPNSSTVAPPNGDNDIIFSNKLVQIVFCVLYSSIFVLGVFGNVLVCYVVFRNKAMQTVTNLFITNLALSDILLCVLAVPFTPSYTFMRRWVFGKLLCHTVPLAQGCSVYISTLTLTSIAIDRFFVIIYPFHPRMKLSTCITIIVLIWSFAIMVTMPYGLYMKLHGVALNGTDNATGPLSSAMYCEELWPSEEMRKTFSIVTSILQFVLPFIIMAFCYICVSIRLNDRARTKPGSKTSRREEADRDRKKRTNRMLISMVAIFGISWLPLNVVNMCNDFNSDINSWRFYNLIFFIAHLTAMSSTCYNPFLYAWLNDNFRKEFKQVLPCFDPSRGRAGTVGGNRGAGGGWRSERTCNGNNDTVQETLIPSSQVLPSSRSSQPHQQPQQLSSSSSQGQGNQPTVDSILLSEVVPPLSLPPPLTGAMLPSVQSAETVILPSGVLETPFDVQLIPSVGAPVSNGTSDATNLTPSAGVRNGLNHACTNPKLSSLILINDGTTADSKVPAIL
Description: as §1

D.mel-sNPFR [3] = target: T2, D.mel-sNPFR; assay: HEK293T cell-based calcium imaging assay, D.mel-sNPFR; conditions: HEK293T + murine Gqα15, Fura-2 calcium imaging
Experimental: (§2) HEK293T cells were cultured using standard protocols in a Thermo Scientific FORMA Series II – Water Jacketed CO2 incubator (Waltham, MA, USA). Lipofectamine 2000 (Invitrogen) was used for transient transfection of 1 µg pME18S>Candidate receptor and 1 µg pME18S>murine Gqα15 [14]. Transfected cells were loaded with the calcium sensitive dye Fura-2 (Invitrogen) according to product instructions. Cells were imaged on a Nikon Eclipse TE-2000-U microscope (Melville, NY, USA) using fluorescent excitation from a Lambda DG-4 (Sutter Instruments Co., Novato, CA, USA). Bath application of ∼300 µl solutions containing peptides diluted in Ringer's solution (0.14 M NaCl, 5.6 mM KCl, 5 mM HEPES, 2 mM pyruvic acid, 2 mM CaCl2, 2 mM MgCl2, 0.15% Glucose, 1.25 mM KH2PO4, pH 7.4) were delivered using a diaphragm pump (Gilson Minipuls3, Middleton, WI, USA) with real-time recording and analysis in Metafluor software (Version 7.1.2.0; Molecular Devices, Sunnyvale, CA, USA). Data from a complete peptide dilution series were collected from eight responding cells within each plate of three independent transfections. Data were normalized by setting the highest fluorescent response within each experiment to 100%.
We also used human Neuropeptide Y (NPY) and Peptide YY (PYY) [23](Figure 2B). […]

[4] = system: Ae. aegypti female mosquitoes; assay: Host-seeking behavior in uniport olfactometer after peptide injection; format: in vivo, Aedes aegypti; conditions: non-blood-fed females, 200 nl of 4 and 10 mM peptide injected into abdomen, tested after one hour; n = 6, ~20 females per trial
Description: The uniport olfactometer was custom built by Vadim Sherman in the Rockefeller University High Energy Physics Instrument Shop. Approximately 15-25 female mosquitoes aged 5 to 14 days were placed within loaders, which are small plastic cylinders with mesh covering both openings and a sliding door on one end obtained from the World Health Organization Vector Control Research Unit ([…], Malaysia). […] were attached to one end of a 1 m long plastic tube ([…]) that led to an “attraction trap” (14 cm long, 5 cm diameter), followed by a sealed chamber into which a human volunteer inserted a hand or forearm (see image in Figure 1A for the configuration with a hand stimulus). Humidified room air was carbon-filtered (Donaldson Ultrac-A, Bloomington, MN), supplemented to a final concentration of 5% CO2 using flow-meters (Cole Parmer, catalogue #023-92-ST, Vernon Hills, IL), and passed over the hand or forearm of the volunteer into the olfactometer at 3.8 L/min. Mosquito loaders were attached to the olfactometer and given 5 minutes to acclimatize to air-flow prior to a 5 minute host-seeking test. Mosquitoes were scored as attracted if they flew upwind through the 1 m tube and into the “attraction trap” within the allotted time. Solutions of Head Peptide-I, sNPF-3 and Head Peptide-I [[…]] were dissolved in saline (0.1M NaCl, 4 mM KCl, 2 mM CaCl2) at a concentration of 4 and 10 mM for injection. ∼20 female mosquitoes aged 5 to 14 days were anesthetized on ice for 3 min, moved individually onto a chill-plate (BioQuip catalogue #1429, Rancho Dominguez, CA, USA), and injected with 200 nl of desired solution using a Drummond Nanoject II (Drummond catalogue # 3-000-204, Broomall, PA, USA) attached to 3.5'' needles (Drummond, catalogue #3-000-203-G/X) shaped on a needle puller (Sutter Instruments Co., Model P-97). Solutions were injected into the abdomen by piercing the second abdominal […] from the ovipositor. Injected mosquitoes were placed in loaders and allowed one hour to recover from injection before being tested for host-seeking behavior in the uniport olfactometer.

Ae. aegypti NPYLR7 = assay: HEK293T cell-based calcium imaging assay, Ae. aegypti NPYLR7; set-up: species or system Aedes aegypti; conditions: HEK293T + murine Gqα15, Fura-2 calcium imaging; NPYLR7B allele responded, NPYLR7A did not
Experimental: as §2
NPYLR1B, NPYLR1C, and NPYLR1D were tested against Head Peptide-I and sNPF-3 only. […]

In the case of CC(C)C[C@H](NC(=O)[C@H](CO)NC(=O)[C@@H]1CCCN1C(=O)[C@@H]1CCCN1C(=O)[C@H](CCCNC(=N)N)NC(=O)[C@@H]1CCC(=O)N1)C(=O)N[C@@H](CCCCN)C(=O)N[C@H](C(=O)N[C@@H](CCCNC(=N)N)C(=O)N[C@@H](Cc1ccccc1)C(N)=O)[C@@H](C)O [Head Peptide-III] ([pGlu]RPPSLKTRF-NH2), the EC50 (Ae. aegypti NPYLR1) is listed as 954 nM, the “Host-seeking behavior activity of injected peptide” value (shortened to “Host-seeking behavior activity”) [1] is listed as “behaviorally inactive” and the “Sensitivity of D. melanogaster sNPFR to Head Peptide-III” value (D.mel-sNPFR [2]) is listed as “lack sensitivity”. The “Sensitivity of An. gambiae sNPFR to Head Peptide-III” value (A.gam-sNPFR) was “lack sensitivity”.
For CC(C)C[C@H](NC(=O)[C@H](CO)NC(=O)[C@@H]1C[C@@H](O)CN1C(=O)[C@@H]1CCCN1C(=O)[C@H](CCCNC(=N)N)NC(=O)[C@@H]1CCC(=O)N1)C(=O)N[C@@H](CCCCN)C(=O)N[C@H](C(=O)N[C@@H](CCCNC(=N)N)C(=O)N[C@@H](Cc1ccccc1)C(N)=O)[C@@H](C)O [Head Peptide-I] ([pGlu]RP[Hyp]SLKTRF-NH2), the EC50 (Ae. aegypti NPYLR1) is listed as 823 nM, the “Host-seeking behavior activity” value [1] is listed as “sufficient to inhibit host-seeking behavior” and the EC50 (D.mel-sNPFR [3]) is listed as 1000 nM. The “Host-seeking behavior (percent attraction to human host stimuli) after injection” value [4] was “inhibition of host-seeking behavior”.
CC(C)C[C@H](NC(=O)[C@H](CCCNC(=N)N)NC(=O)[C@H](CC(C)C)NC(=O)[C@H](CO)NC(=O)[C@@H]1CCCN1C(=O)[C@@H](N)CO)C(=O)N[C@@H](CCCNC(=N)N)C(=O)N[C@@H](Cc1ccccc1)C(N)=O [sNPF-1(4-11)] (H-SPSLRLRF-NH2) showed an EC50 (Ae. aegypti NPYLR1) of 44 nM.
Molecule CC(C)C[C@H](NC(=O)[C@H](CCCNC(=N)N)NC(=O)[C@H](CC(C)C)NC(=O)[C@H](CO)NC(=O)[C@@H]1CCCN1C(=O)[C@H](CO)NC(=O)[C@H](CCCNC(=N)N)NC(=O)[C@@H](NC(=O)[C@H](C)NC(=O)[C@@H](N)CCCCN)C(C)C)C(=O)N[C@@H](CCCNC(=N)N)C(=O)N[C@@H](Cc1ccccc1)C(N)=O [sNPF-1] (H-KAVRSPSLRLRF-NH2; N-terminus assumed) has an EC50 (Ae. aegypti NPYLR1) of 55 nM and an EC50 (Ae. aegypti NPYLR7) of 634 nM.
With CC(C)C[C@H](NC(=O)[C@H](CCCNC(=N)N)NC(=O)[C@H](CC(C)C)NC(=O)[C@H](CCC(N)=O)NC(=O)[C@@H]1CCCN1C(=O)[C@H](C)N)C(=O)N[C@@H](CCCNC(=N)N)C(=O)N[C@@H](Cc1ccccc1)C(N)=O [sNPF-2+4] (H-APQLRLRF-NH2) the EC50 (Ae. aegypti NPYLR1) was 35 nM.
With CC(C)C[C@H](NC(=O)[C@H](CCCNC(=N)N)NC(=O)[C@H](CCC(N)=O)NC(=O)[C@H](CO)NC(=O)[C@@H]1CCCN1C(=O)[C@H](C)N)C(=O)N[C@@H](CCCNC(=N)N)C(=O)N[C@@H](Cc1c[nH]c2ccccc12)C(N)=O [sNPF-3] (H-APSQRLRW-NH2; N-terminus assumed) the EC50 (Ae. aegypti NPYLR1) was 75 nM, the “Sensitivity of NPYLR1 to sNPF-3 relative to Head Peptide-I” value (Ae. aegypti NPYLR1; cell-based assay) was “ten times more sensitive” and the EC50 (Ae. aegypti NPYLR7) was 6000 nM. The “Host-seeking behavior (percent attraction to human host stimuli) after injection” value [4] was “inhibited host-seeking behavior”.
For pERPhPSLKTRC [Head Peptide-I [Cys10]], the “Calcium response of NPYLR1” value (Ae. aegypti NPYLR1; concentrations up to 50 µM, HEK293T + murine Gqα15, Fura-2) is listed as “no response”, the “Host-seeking behavior activity” value [1] is listed as “inactive” and the “Host-seeking behavior (percent attraction to human host stimuli) after injection” value [4] is listed as “had no effect”.
